Experimental data from US20110319392A1, “Thiazole Sulfonamide And Oxazole Sulfonamide Kinase Inhibitors” (priority 2009, published 2011).

Tests used:
Colo205 tumor cells = test: Cell growth inhibition assay (CellTiter-Glo), Colo205; assay type: cell-based, Human; conditions: 3 days incubation
In short: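 Cells plated at 500 cells/well in their growth media, dosed next day with nine-step 1:3 compound dilutions (final DMSO 0.2%), then incubated 3 days at 37° C, 5% CO2. Total ATP read by CellTiter-Glo luminescence as a surrogate for cell number; IC50 interpolated from 4-parameter fit versus DMSO controls.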

ErbB2 = target: T1, ErbB2 (Homo sapiens, UniProt P04626); test: ErbB-2 substrate phosphorylation assay (HTRF); assay type: biochemical
T1 construct: made in house; host or cells: baculovirus expression system
T1 sequence (P04626 23-1255): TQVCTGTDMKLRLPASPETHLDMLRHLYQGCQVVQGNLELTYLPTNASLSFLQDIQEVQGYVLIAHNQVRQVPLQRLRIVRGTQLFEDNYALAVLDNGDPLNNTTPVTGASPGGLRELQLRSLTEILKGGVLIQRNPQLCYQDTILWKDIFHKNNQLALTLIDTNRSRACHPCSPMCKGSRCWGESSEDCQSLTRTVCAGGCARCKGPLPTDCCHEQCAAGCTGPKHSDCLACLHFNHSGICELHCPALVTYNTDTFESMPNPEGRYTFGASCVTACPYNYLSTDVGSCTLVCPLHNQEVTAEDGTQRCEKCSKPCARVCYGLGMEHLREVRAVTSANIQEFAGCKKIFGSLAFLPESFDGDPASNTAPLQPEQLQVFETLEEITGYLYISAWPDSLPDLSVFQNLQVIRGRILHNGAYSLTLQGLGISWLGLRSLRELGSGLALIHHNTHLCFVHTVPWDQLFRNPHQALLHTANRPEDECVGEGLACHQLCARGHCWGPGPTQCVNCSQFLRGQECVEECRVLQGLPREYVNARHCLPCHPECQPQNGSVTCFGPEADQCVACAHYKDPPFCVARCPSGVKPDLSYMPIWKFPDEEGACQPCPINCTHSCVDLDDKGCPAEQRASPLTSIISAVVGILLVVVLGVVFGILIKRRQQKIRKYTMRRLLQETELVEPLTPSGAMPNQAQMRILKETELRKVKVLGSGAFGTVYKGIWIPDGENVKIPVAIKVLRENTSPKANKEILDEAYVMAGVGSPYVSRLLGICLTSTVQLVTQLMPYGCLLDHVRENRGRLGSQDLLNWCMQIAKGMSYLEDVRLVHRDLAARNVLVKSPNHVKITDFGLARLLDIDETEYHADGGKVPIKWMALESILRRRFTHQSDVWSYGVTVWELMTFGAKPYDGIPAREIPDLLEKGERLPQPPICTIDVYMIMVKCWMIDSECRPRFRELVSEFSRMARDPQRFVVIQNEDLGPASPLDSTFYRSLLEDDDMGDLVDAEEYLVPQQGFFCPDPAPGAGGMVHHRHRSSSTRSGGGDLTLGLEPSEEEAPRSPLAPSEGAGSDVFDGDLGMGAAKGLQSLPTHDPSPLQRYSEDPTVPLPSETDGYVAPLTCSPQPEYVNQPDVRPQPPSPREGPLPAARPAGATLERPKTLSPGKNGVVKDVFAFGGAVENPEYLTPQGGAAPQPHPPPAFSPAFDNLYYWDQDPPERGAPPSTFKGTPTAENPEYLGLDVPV
In short: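 Baculovirus-expressed EGFR (0.8 nM) or ErbB2 (10 nM) in enzyme mix, preincubated 1 h at 20 °C with compound (0.00027–47.6 μM final), then 90 min at 20 °C with substrate mix of 20 μM ATP, 0.8 uM biotinylated Peptide C, MnCl2, MOPS pH 7.5. Phosphotyrosine by HTRF; pIC50 reported.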

A375P F11s tumor cells = test: Cell growth inhibition assay (CellTiter-Glo), A375P F11s; assay type: cell-based, Human; conditions: for IC50: Homo sapiens
In short: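 Cells seeded at 500/well (HN5 and HT-29 in high-glucose DMEM/10% FBS; A375P F11s in RPMI/10% FBS with pyruvate; SK-MEL-3 in McCoy's 5A/15% FBS), then exposed next day to 1:3 serial compound dilutions (0.2% DMSO) for 3 days at 37° C. CellTiter-Glo luminescence measured ATP; IC50 derived by 4-parameter fit.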

Structure (SMILES) | IC50 (Colo205 tumor cells; Homo sapiens, COLO 205, 72 h) | IC50 (ErbB2) | IC50 (A375P F11s tumor cells) | IC50 (Colo205 tumor cells) | Activity in A375P F11s Tumor Cells (A375P F11s tumor cells)
CC(C)c1nc(-c2cccc(NS(=O)(=O)c3ccco3)c2)c(-c2ccnc(Nc3ccc(N4CCOCC4)nc3)n2)s1 [Example 53] | < 100 nM | > 1000 nM | < 100 nM |  | 
CC(=O)N1CCN(c2ccc(Nc3nccc(-c4oc(C(C)C)nc4-c4cccc(NS(=O)(=O)c5c(F)cccc5F)c4)n3)cn2)CC1 [Example 56] | < 100 nM | > 1000 nM | 100 to 1000 nM |  | 
CC(C)c1nc(-c2cccc(NS(=O)(=O)c3c(F)cccc3F)c2)c(-c2ccnc(Nc3ccc(N4CCOCC4)c(F)c3)n2)o1 [Example 57] | < 100 nM | > 1000 nM | 100 to 1000 nM |  | 
CC(=O)N1CCN(c2ccc(Nc3nccc(-c4sc(C(C)C)nc4-c4cccc(NS(=O)(=O)c5cccc(C(F)(F)F)c5)c4)n3)cn2)CC1 [Example 70] | 100 to 1000 nM | > 1000 nM | 100 to 1000 nM |  | 
CC(C)c1nc(-c2ccnc(NS(=O)(=O)c3c(F)cccc3F)c2)c(-c2ccnc(Nc3ccc(N4CCN(CCF)CC4)c(F)c3)n2)s1 [Example 100] | < 100 nM | > 1000 nM | < 100 nM |  | 
CC(C)c1nc(-c2ccc(F)c(NS(=O)(=O)c3c(F)cccc3F)c2)c(-c2ccnc(Nc3ccncc3)n2)s1 [Example 102] | 100 to 1000 nM | > 1000 nM | 100 to 1000 nM |  | 
CN(C)c1nc(-c2ccc(F)c(NS(=O)(=O)c3c(F)cccc3F)c2)c(-c2ccnc(Nc3ccc(N4CCN(S(C)(=O)=O)CC4)nc3)n2)s1 [Example 112] | 100 to 1000 nM | 100 to 1000 nM | 100 to 1000 nM |  | 
O=S(=O)(Nc1cc(-c2nc(N3CCCC3)oc2-c2ccnc(Nc3ccc(N4CCN(CCF)CC4)c(F)c3)n2)ccc1F)c1c(F)cccc1F [Example 114] | 100 to 1000 nM | 100 to 1000 nM | 100 to 1000 nM |  | 
Cc1cc(Nc2nccc(-c3sc(C(C)C)nc3-c3ccc(F)c(NS(=O)(=O)c4c(F)cccc4F)c3)n2)ccn1 [Example 116] | < 100 nM | 100 to 1000 nM | 100 to 1000 nM |  | 
CS(=O)(=O)CCN1CCN(c2ccc(Nc3nccc(-c4oc(N5CCCC5)nc4-c4ccc(F)c(NS(=O)(=O)c5c(F)cccc5F)c4)n3)cc2F)CC1 [Example 119] | 100 to 1000 nM | 100 to 1000 nM | 100 to 1000 nM |  | 
O=S(=O)(Nc1cc(-c2nc(N3CCOCC3)sc2-c2ccnc(Nc3ccc(N4CCOCC4)nc3)n2)ccc1F)c1c(F)cccc1F [Example 121] | < 100 nM | 100 to 1000 nM | 100 to 1000 nM |  | 
O=S(=O)(Nc1cccc(-c2nc(N3CCOCC3)sc2-c2ccnc(Nc3ccc(N4CCOCC4)nc3)n2)c1F)c1c(F)cccc1F [Example 122] | < 100 nM | 100 to 1000 nM | < 100 nM |  | 
CC(C)c1nc(-c2cccc(NS(=O)(=O)c3c(F)cccc3F)c2F)c(-c2ccnc(Nc3ccc(N4CCOCC4)nc3)n2)s1 [Example 123] | < 100 nM | > 1000 nM | < 100 nM |  | 
Cc1cc(N2CCOCC2)ncc1Nc1nccc(-c2sc(N3CCCC3)nc2-c2cccc(NS(=O)(=O)c3c(F)cccc3F)c2)n1 [Example 124] | 100 to 1000 nM | 100 to 1000 nM |  |  | + (activity of >1 μM in A375P F11s tumor cells)
CN1CCN(c2nc(-c3ccc(F)c(NS(=O)(=O)c4c(F)cccc4F)c3)c(-c3ccnc(Nc4ccc(N5CCOCC5)nc4)n3)s2)CC1 [Example 126] | < 100 nM | 100 to 1000 nM | 100 to 1000 nM |  | 
O=S(=O)(Nc1cc(-c2nc(N3CCOCC3)sc2-c2ccnc(Nc3ccc4c(c3)OCCO4)n2)ccc1F)c1c(F)cccc1F [Example 127] | 100 to 1000 nM | 100 to 1000 nM |  |  | + (activity of >1 μM in A375P F11s tumor cells)
CS(=O)(=O)c1cccc(Nc2nccc(-c3sc(N4CCOCC4)nc3-c3cccc(NS(=O)(=O)c4c(F)cccc4F)c3F)n2)c1 [Example 130] | < 100 nM | 100 to 1000 nM | < 100 nM |  | 
Cc1cc(N2CCN(CCS(C)(=O)=O)CC2)ncc1Nc1nccc(-c2sc(C(C)C)nc2-c2cccc(NS(=O)(=O)c3c(F)cccc3F)c2)n1 [Example 131] | < 100 nM | 100 to 1000 nM | < 100 nM |  | 
Cc1nc(-c2cccc(NS(=O)(=O)c3c(F)cccc3F)c2)c(-c2ccnc(Nc3ccc(N4CCOCC4)nc3)n2)s1 [Example 133] | < 100 nM | > 1000 nM | < 100 nM |  | 
CS(=O)(=O)c1cccc(Nc2nccc(-c3sc(N4CCOCC4)nc3-c3cccc(NS(=O)(=O)c4c(F)cccc4F)c3Cl)n2)c1 [Example 145] | < 100 nM | > 1000 nM | < 100 nM |  | 
O=S(=O)(Nc1cccc(-c2nc(N3CCOCC3)sc2-c2ccnc(Nc3ccc(N4CCOCC4)nc3)n2)c1Cl)c1c(F)cccc1F [Example 146] | < 100 nM | > 1000 nM | < 100 nM |  | 
O=S(=O)(Nc1cccc(-c2nc(N3CCCCC3)sc2-c2ccnc(Nc3ccc(N4CCOCC4)nc3)n2)c1)c1c(F)cccc1F [Example 151] | < 100 nM | > 1000 nM | < 100 nM |  | 
CCNc1nc(-c2cccc(NS(=O)(=O)c3c(F)cccc3F)c2)c(-c2ccnc(Nc3ccc(N4CCOCC4)nc3)n2)s1 [Example 152] | < 100 nM | 100 to 1000 nM | < 100 nM |  | 
O=S1(=O)Cc2ccc(Nc3nccc(-c4sc(N5CCOCC5)nc4-c4cccc(NS(=O)(=O)c5c(F)cccc5F)c4F)n3)cc2C1 [Example 155] | < 100 nM | 100 to 1000 nM | < 100 nM |  | 
COc1ccc(S(C)(=O)=O)cc1Nc1nccc(-c2sc(N3CCOCC3)nc2-c2cccc(NS(=O)(=O)c3c(F)cccc3F)c2F)n1 [Example 157] | < 100 nM | > 1000 nM | < 100 nM |  | 
Cc1cc(Nc2nccc(-c3sc(C(C)(C)C)nc3-c3cccc(NS(=O)(=O)c4c(F)cccc4F)c3F)n2)ccn1 [Example 159] | < 100 nM | 100 to 1000 nM | < 100 nM |  | 
O=S(=O)(Nc1cccc(-c2ncsc2-c2ccnc(Nc3ccc(N4CCOCC4)nc3)n2)c1)c1c(F)cccc1F [Example 162] | < 100 nM | > 1000 nM | < 100 nM |  | 

More lines, main results first:

IC50 (Colo205 tumor cells; Homo sapiens, COLO 205, 72 h) | IC50 (ErbB2) | IC50 (A375P F11s tumor cells) | IC50 (Colo205 tumor cells) | Structure (SMILES) | Activity in A375P F11s Tumor Cells (A375P F11s tumor cells)
< 100 nM | 100 to 1000 nM | < 100 nM |  | CC(C)c1nc(-c2cccc(NS(=O)(=O)c3cccs3)c2)c(-c2ccnc(Nc3ccc(N4CCOCC4)nc3)n2)s1 [Example 51] | 
< 100 nM | 100 to 1000 nM | < 100 nM |  | CC(C)c1nc(-c2cccc(NS(=O)(=O)c3cccnc3)c2)c(-c2ccnc(Nc3ccc(N4CCOCC4)nc3)n2)s1 [Example 52] | 
< 100 nM | 100 to 1000 nM | < 100 nM |  | Nc1nc(-c2cccc(NS(=O)(=O)c3c(F)cccc3F)c2)c(-c2ccnc(Nc3ccc(N4CCOCC4)nc3)n2)s1 [Example 62] | 
 | < 100 nM | 100 to 1000 nM | 100 to 1000 nM | CCNc1nc(-c2cccc(NS(=O)(=O)c3ccccc3)c2)c(-c2ccnc(Nc3ccc(OCCN4CCCC4)c(F)c3)n2)s1 [Example 65] | 
< 100 nM | 100 to 1000 nM | < 100 nM |  | CC(C)c1nc(-c2ccc(F)c(NS(=O)(=O)c3c(F)cccc3F)c2)c(-c2ccnc(Nc3ccc(N4CCN5CCOC[C@H]5C4)nc3)n2)s1 [Example 97] | 
100 to 1000 nM | < 100 nM | 100 to 1000 nM |  | CCOc1ccc(Nc2nccc(-c3sc(C(C)C)nc3-c3ccc(F)c(NS(=O)(=O)c4c(F)cccc4F)c3)n2)cc1N1CCN(CCF)CC1 [Example 98] | 
< 100 nM | < 100 nM | 100 to 1000 nM |  | CC(C)(C)c1nc(-c2ccc(F)c(NS(=O)(=O)c3c(F)cccc3F)c2)c(-c2ccnc(Nc3ccc(N4CCN(CCF)CC4)c(F)c3)n2)s1 [Example 99] | 
100 to 1000 nM | 100 to 1000 nM | 100 to 1000 nM |  | CC(C)c1nc(-c2cc(F)c(F)c(NS(=O)(=O)c3cccc(F)c3)c2)c(-c2ccnc(Nc3ccc(N4CCN(CCF)CC4)c(F)c3)n2)s1 [Example 101] | 
100 to 1000 nM | 100 to 1000 nM | < 100 nM |  | CN1CCC(c2nc(-c3ccc(F)c(NS(=O)(=O)c4c(F)cccc4F)c3)c(-c3ccnc(Nc4ccc(N5CCOCC5)nc4)n3)s2)CC1 [Example 106] | 
100 to 1000 nM | 100 to 1000 nM | 100 to 1000 nM |  | CC(C)c1nc(-c2ccc(F)c(NS(=O)(=O)c3ccccc3C#N)c2)c(-c2ccnc(Nc3ccc(N4CCOCC4)nc3)n2)s1 [Example 107] | 
< 100 nM | < 100 nM | < 100 nM |  | CCOc1ccc(Nc2nccc(-c3sc(N4CCCC4)nc3-c3cccc(NS(=O)(=O)c4c(F)cccc4F)c3)n2)cc1N1CCN(CCS(C)(=O)=O)CC1 [Example 109] | 
100 to 1000 nM | < 100 nM | 100 to 1000 nM |  | CC(C)c1nc(-c2ccc(F)c(NS(=O)(=O)c3c(F)cccc3F)c2)c(-c2ccnc(Nc3cccc(CCS(N)(=O)=O)c3)n2)s1 [Example 113] | 
< 100 nM | < 100 nM | 100 to 1000 nM |  | CC(C)c1nc(-c2ccc(F)c(NS(=O)(=O)c3c(F)cccc3F)c2)c(-c2ccnc(Nc3ccnc(N4CCOCC4)c3)n2)s1 [Example 117] | 
< 100 nM | < 100 nM | 100 to 1000 nM |  | COc1cc(N2CCN(CCS(C)(=O)=O)CC2)c(C)cc1Nc1nccc(-c2sc(C(C)(C)C)nc2-c2cccc(NS(=O)(=O)c3c(F)cccc3F)c2)n1 [Example 120] | 
< 100 nM | < 100 nM | 100 to 1000 nM |  | COc1cc(N2CCN(CCS(C)(=O)=O)CC2)c(C)cc1Nc1nccc(-c2sc(N3CCOCC3)nc2-c2cccc(NS(=O)(=O)c3c(F)cccc3F)c2)n1 [Example 128] | 
100 to 1000 nM | < 100 nM | 100 to 1000 nM |  | CCNc1nc(-c2ccc(F)c(NS(=O)(=O)c3c(F)cccc3F)c2)c(-c2ccnc(Nc3ccc(N4CCOCC4)nc3)n2)s1 [Example 166] | 
